Test results published in publication PMC7827406, “Structure–Activity Relationship (SAR) Study of Spautin-1 to Entail the Discovery of Novel NEK4 Inhibitors” (International Journal of Molecular Sciences, 2021).
Read-outs that look alike come from different tables or passages of the source.

What was measured:
Assay in all cases: biochemical
Parameters in all cases: Eurofins KinaseProfiler full panel at Km ATP, residual kinase activity (%) relative to DMSO
ULK3(h) = molecular target: T1, ULK3(h) (Homo sapiens, UniProt Q6PHR2)
T1 sequence (Q6PHR2 1-472): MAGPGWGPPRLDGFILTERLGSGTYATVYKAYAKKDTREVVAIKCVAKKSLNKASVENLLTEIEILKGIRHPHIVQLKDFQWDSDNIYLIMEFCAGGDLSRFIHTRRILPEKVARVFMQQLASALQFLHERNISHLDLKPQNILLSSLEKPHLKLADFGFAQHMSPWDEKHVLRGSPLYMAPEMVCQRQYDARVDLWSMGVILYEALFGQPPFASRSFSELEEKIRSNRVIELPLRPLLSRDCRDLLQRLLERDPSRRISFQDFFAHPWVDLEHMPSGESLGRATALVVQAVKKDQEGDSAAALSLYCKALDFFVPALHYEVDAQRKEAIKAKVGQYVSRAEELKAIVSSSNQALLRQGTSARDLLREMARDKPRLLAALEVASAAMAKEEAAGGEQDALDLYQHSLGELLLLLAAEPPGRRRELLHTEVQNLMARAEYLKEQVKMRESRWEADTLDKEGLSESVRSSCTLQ
How it was run: (§1)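 Two 10 µM single-concentration screens were run: a competition-binding screen, in which DNA-tagged kinase bound to immobilized ligands was quantified by qPCR, and a radiometric activity panel at Km ATP. Each is expressed as residual kinase activity (%).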

SAPK2a(T106M)(h) = molecular target: T2, SAPK2a(T106M)(h) (Homo sapiens, UniProt Q16539, T106M)
T2 construct: gene MAPK14
How it was run: as §1

CaMKIß(h) = molecular target: T3, CaMKIß(h) (Homo sapiens, UniProt Q6P2M8)
T3 construct: gene PNCK
How it was run: as §1

PhKγ2(h) = molecular target: T4, PhKγ2(h) (Homo sapiens, UniProt P15735)
T4 construct: gene PHKG2
T4 sequence (P15735 1-406): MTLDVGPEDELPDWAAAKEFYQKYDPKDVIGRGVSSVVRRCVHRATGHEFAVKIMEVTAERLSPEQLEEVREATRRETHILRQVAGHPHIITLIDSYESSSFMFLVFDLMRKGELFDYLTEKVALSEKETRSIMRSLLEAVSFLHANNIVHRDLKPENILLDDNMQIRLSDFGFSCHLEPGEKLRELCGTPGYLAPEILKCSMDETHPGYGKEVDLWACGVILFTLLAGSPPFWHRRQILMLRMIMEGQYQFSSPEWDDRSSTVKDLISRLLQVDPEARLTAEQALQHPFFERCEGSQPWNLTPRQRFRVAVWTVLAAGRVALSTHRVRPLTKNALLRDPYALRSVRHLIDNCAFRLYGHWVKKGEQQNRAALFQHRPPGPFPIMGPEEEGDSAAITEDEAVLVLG
How it was run: as §1

PKCμ(h) = molecular target: T5, PKCμ(h) (Homo sapiens, UniProt Q15139)
T5 construct: gene PRKD1
T5 sequence (Q15139 1-912): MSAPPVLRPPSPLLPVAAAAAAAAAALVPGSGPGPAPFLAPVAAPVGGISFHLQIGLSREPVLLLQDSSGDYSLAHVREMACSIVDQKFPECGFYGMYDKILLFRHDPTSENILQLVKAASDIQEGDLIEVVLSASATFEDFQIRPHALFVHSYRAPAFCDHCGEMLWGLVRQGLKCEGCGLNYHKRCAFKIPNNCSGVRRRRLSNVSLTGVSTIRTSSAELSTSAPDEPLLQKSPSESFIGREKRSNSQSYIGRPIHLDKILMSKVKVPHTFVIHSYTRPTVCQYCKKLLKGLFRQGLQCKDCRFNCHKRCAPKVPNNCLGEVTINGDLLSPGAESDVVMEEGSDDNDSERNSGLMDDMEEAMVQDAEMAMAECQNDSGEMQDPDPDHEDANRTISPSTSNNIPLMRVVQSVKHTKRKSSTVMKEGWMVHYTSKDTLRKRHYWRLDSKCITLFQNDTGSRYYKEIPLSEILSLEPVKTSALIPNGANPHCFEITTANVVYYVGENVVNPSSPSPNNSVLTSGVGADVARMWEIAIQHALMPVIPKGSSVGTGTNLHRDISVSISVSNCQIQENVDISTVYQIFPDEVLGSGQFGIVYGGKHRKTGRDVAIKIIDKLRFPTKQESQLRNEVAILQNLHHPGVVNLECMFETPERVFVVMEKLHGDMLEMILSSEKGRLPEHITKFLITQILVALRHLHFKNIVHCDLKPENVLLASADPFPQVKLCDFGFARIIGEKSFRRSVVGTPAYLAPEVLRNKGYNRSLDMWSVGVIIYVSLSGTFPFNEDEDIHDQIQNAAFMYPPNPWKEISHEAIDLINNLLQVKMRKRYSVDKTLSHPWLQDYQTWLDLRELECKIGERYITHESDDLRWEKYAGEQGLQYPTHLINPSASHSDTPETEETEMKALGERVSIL
How it was run: as §1

[1] = read-out: Residual activity (%) Spautin-1 5aa
[2] = read-out: Residual activity (%) 5as
[3] = read-out: Residual activity (%) 5at
[4] = read-out: Residual activity (%) 5ay

T2 sequence (Q16539 whole entry T106M): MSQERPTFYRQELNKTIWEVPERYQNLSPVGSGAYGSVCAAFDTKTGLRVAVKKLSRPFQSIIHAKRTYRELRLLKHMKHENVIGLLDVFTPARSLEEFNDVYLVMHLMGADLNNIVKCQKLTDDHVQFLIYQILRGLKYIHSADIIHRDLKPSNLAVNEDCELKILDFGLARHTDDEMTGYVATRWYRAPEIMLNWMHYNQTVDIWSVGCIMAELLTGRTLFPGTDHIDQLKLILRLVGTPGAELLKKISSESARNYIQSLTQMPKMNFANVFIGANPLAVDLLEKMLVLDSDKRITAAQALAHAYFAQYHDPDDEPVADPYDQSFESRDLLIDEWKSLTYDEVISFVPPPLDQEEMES
T3 sequence (Q6P2M8 whole entry): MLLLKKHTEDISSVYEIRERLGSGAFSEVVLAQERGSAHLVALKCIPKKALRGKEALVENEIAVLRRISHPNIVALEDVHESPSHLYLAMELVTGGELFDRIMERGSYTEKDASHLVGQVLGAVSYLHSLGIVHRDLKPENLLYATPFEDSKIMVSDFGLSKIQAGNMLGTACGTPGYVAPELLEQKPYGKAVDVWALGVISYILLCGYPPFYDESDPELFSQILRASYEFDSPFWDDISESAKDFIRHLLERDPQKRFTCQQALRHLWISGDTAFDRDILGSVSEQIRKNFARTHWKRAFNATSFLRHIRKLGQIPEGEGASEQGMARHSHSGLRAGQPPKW

Fc1ccc(CNc2ncnc3ccc(F)cc23)cc1 [5aa, 6-Fluoro-N-(4-fluorobenzyl)-4-Quinazolinamine]
remaining activity at 10 µM (ULK3(h); [1]): 96% | remaining activity at 10 µM (SAPK2a(T106M)(h); [1]): 95% | remaining activity at 10 µM (CaMKIß(h); [1]): 85% | remaining activity at 10 µM (PhKγ2(h); [1]): 78% | remaining activity at 10 µM (PKCμ(h); [1]): 97%

Fc1ccc(CCNc2ncnc3ccc(F)cc23)cc1 [5as, 6-Fluoro-N-[2-(4-Fluorophenyl)Ethyl]-4-Quinazolinamine]
remaining activity at 10 µM (ULK3(h); [2]): 92% | remaining activity at 10 µM (SAPK2a(T106M)(h); [2]): 115% | remaining activity at 10 µM (CaMKIß(h); [2]): 84% | remaining activity at 10 µM (PhKγ2(h); [2]): 91% | remaining activity at 10 µM (PKCμ(h); [2]): 85%

Fc1ccc2ncnc(NCCc3ccc(Cl)cc3)c2c1 [5at, N-[2-(4-Chlorophenyl)Ethyl]-6-Fluoro-4-Quinazolinamine]
remaining activity at 10 µM (ULK3(h); [3]): 93% | remaining activity at 10 µM (SAPK2a(T106M)(h); [3]): 103% | remaining activity at 10 µM (CaMKIß(h); [3]): 81% | remaining activity at 10 µM (PhKγ2(h); [3]): 82% | remaining activity at 10 µM (PKCμ(h); [3]): 80%

COc1ccc2ncnc(Nc3cccc(F)c3)c2c1 [5ay, N-(3-Fluorophenyl)-6-Methoxy-4-Quinazolinamine]
remaining activity at 10 µM (ULK3(h); [4]): 90% | remaining activity at 10 µM (SAPK2a(T106M)(h); [4]): 121% | remaining activity at 10 µM (CaMKIß(h); [4]): 92% | remaining activity at 10 µM (PhKγ2(h); [4]): 109% | remaining activity at 10 µM (PKCμ(h); [4]): 93%
